ChEMBL document CHEMBL1143254, “Structure-based design of novel 2-amino-6-phenyl-pyrimido[5',4':5,6]pyrimido[1,2-a]benzimidazol-5(6H)-ones as potent and orally active inhibitors of lymphocyte specific kinase (Lck): synthesis, SAR, and in vivo anti-inflammatory activity” (J Med Chem, 2008)

Biological target: Proto-oncogene tyrosine-protein kinase Src (Homo sapiens, UniProt P12931)
Test: Inhibition of Src by HTRF assay

Proto-oncogene tyrosine-protein kinase Src, sequence (P12931 2-536 limits assumed): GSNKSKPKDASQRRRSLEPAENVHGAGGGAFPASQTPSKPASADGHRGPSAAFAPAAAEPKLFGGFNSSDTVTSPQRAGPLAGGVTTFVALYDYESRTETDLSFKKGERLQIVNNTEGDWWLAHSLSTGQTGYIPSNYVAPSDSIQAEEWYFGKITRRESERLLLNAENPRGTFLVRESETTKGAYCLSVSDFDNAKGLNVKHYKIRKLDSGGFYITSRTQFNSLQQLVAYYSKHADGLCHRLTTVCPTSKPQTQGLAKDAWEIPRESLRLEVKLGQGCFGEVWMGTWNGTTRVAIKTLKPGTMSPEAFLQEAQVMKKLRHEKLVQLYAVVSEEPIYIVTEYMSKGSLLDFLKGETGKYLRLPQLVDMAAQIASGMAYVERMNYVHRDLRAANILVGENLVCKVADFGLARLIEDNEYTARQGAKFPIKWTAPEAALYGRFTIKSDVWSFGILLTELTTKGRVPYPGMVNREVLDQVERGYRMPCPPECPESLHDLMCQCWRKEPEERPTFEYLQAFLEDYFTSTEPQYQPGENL

| SMILES | IC50 |
| --- | --- |
| CN1CCN(c2ccc(Nc3ncc4c(=O)n(-c5c(Cl)cc(Cl)cc5Cl)c5nc6ccccc6n5c4n3)cc2)CC1 | 35 nM |

Biological target: Mitogen-activated protein kinase 14 (Homo sapiens, UniProt Q16539)
Sequence (Q16539 whole entry): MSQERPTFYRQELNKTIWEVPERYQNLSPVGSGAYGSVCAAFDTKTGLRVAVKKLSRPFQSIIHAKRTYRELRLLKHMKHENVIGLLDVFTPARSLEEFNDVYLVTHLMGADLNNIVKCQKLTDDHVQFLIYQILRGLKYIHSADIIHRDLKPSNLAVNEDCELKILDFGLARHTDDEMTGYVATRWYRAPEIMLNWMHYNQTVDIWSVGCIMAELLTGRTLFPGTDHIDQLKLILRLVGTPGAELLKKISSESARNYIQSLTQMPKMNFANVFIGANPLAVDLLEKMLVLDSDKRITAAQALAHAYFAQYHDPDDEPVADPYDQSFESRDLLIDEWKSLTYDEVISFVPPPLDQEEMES
Test: Inhibition of p38-alpha by HTRF assay

| SMILES | IC50 |
| --- | --- |
| CN1CCN(c2ccc(Nc3ncc4c(=O)n(-c5c(Cl)cc(Cl)cc5Cl)c5nc6ccccc6n5c4n3)cc2)CC1 | > 10000 nM |

Biological target: Vascular endothelial growth factor receptor 2 (Homo sapiens, UniProt P35968)
Sequence (P35968 whole entry): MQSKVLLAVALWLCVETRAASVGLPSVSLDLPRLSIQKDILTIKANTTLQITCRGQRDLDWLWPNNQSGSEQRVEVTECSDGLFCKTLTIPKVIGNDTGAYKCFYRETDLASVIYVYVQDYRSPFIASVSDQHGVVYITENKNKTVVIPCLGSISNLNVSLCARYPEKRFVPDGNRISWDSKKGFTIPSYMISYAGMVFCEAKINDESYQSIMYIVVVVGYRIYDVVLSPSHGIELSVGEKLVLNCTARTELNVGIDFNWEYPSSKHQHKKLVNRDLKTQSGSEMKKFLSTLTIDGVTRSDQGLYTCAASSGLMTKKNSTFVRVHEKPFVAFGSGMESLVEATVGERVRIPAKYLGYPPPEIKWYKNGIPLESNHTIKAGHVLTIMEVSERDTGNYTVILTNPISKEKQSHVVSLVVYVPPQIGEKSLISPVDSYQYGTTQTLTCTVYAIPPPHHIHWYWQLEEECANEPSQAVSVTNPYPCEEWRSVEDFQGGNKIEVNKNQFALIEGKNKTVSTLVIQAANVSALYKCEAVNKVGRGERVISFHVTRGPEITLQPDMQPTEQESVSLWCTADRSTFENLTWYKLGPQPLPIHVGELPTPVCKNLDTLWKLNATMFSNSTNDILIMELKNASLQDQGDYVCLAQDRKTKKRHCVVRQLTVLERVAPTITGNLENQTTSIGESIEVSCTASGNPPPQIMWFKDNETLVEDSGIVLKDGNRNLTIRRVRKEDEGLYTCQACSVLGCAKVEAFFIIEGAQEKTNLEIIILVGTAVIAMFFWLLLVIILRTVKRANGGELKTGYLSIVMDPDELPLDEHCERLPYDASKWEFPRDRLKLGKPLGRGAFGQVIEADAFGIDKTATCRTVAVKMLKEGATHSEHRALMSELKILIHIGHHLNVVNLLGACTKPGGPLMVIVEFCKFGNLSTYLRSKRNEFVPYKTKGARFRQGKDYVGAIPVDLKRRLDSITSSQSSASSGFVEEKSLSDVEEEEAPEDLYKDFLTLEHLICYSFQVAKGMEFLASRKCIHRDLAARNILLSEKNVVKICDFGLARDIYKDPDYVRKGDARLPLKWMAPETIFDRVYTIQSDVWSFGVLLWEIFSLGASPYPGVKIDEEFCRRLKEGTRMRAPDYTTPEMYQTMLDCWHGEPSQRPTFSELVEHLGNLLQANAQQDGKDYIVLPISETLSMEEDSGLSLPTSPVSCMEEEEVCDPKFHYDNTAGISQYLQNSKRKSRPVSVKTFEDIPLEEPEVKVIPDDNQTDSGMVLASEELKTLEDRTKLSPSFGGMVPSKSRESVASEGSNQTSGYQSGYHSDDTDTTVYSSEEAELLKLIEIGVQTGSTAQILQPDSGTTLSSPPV
Test: Inhibition of KDR by HTRF assay

| SMILES | IC50 |
| --- | --- |
| CN1CCN(c2ccc(Nc3ncc4c(=O)n(-c5c(Cl)cc(Cl)cc5Cl)c5nc6ccccc6n5c4n3)cc2)CC1 | 480 nM |

System: Lymphocyte
Test: Inhibition of T cell activation in human peripheral blood lymphocytes by mixed lymphocyte reaction
Type: functional, cell-based

| SMILES | IC50 |
| --- | --- |
| CN1CCN(c2ccc(Nc3ncc4c(=O)n(-c5c(Cl)cc(Cl)cc5Cl)c5nc6ccccc6n5c4n3)cc2)CC1 | 140 nM |

Biological target: Tyrosine-protein kinase Lck (Homo sapiens, UniProt P06239)
Sequence (P06239 whole entry): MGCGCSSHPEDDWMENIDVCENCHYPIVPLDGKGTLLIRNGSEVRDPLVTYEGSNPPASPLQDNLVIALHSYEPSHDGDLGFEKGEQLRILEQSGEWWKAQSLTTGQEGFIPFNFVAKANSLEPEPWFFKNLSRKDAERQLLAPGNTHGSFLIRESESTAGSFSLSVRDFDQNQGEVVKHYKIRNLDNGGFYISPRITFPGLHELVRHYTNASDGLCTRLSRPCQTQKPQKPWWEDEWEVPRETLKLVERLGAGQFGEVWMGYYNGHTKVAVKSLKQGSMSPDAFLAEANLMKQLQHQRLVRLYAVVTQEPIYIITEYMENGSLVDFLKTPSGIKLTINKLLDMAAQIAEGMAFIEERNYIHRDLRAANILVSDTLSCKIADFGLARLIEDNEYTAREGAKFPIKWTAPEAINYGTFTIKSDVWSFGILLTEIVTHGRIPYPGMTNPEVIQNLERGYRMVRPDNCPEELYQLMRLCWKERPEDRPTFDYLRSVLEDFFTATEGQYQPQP
Description: Inhibition of Lck by HTRF assay

| SMILES | IC50 |
| --- | --- |
| CN1CCN(c2ccc(Nc3ncc4c(=O)n(-c5c(Cl)cc(Cl)cc5Cl)c5nc6ccccc6n5c4n3)cc2)CC1 | 8 nM |
